Data on four compounds can be found in US7538102B2, “Compounds for the treatment of Hepatitis C” (Bristol-Myers Squibb Company, priority 2007, dated 2009).

For one experiment, the system named is HCV replicon. The experiment is described as follows: HCV replicon FRET / luciferase assay. Particulars: Hepatitis C virus; HCV replicon cells; 50% reduction in FRET or luciferase activity; read-out: EC50. Type of experiment: cell-based. On the procedure: FRET Assay Preparation. The HCV FRET screening assay was performed in 96-well cell culture plates. The FRET peptide (Anaspec, Inc.) (Taliani et al., Anal. Biochem. 1996, 240, 60-67) contains a fluorescence donor, EDANS, near one end of the peptide and an acceptor, DABCYL, near the other end. The fluorescence of the peptide is quenched by […] resonance energy transfer (RET) between the donor and the acceptor, but as the NS3 protease cleaves the peptide the products are released from RET quenching and the fluorescence of the donor becomes apparent. The assay reagent was made as follows: 5× cell Luciferase cell culture lysis reagent from Promega (#E153A) diluted to 1× with dH2O, NaCl added to 150 mM final, the FRET peptide diluted to 20 μM final from a 2 mM stock.
To prepare plates, HCV replicon cells, with or without a Renilla luciferase reporter gene, were trypsinized and plated in a 96-well plate with titrated test compounds added in columns 3 through 12; columns 1 and 2 contained a control compound (HCV control inhibitor), and the bottom row contained cells with DMSO only. The plates were then placed in a CO2 incubator at 37° C.
Assays. Subsequent to addition of the test compounds described above (FRET Assay Preparation), at various times the plate was removed and Alamar blue solution (Trek Diagnostics, #00-100) was added to measure cellular toxicity. After reading in a Cytoflour 4000 instrument (PE Biosystems), plates were rinsed with PBS and then used for FRET assay by the addition of 30 ul of the FRET peptide assay reagent described above (FRET Assay Preparation) per well. The plate was then placed into the Cytoflour 4000 instrument which had been set to 340 excite/490 emission, automatic mode for up to 20 cycles and the plate read in a kinetic mode. Typically, the signal to noise using an endpoint analysis after the reads was at least three-fold. Alternatively, after Alamar blue reading, plates were rinsed with PBS, then used for luciferase assay using the Promega Dual-Glo Luciferase Assay System or the Promega EnduRen Live Cell Substrate assay.
Compound analysis was performed by quantification of the relative HCV replicon inhibition and the relative cytotoxicity values. To calculate cytoxicity values, the average Alamar Blue fluorescence signals from the control wells were set as 100% non-toxic. The individual signals in each of the compound test wells were then divided by the average control signal and multiplied by 100% to determine […]. To calculate the HCV replicon inhibition values, an average background value was obtained from the two wells containing the highest amount of HCV control inhibitor at the end of the assay period. These numbers were similar to those obtained from naive Huh-7 cells. The background numbers were then subtracted from the average signal obtained from the control wells and this number was used as 100% activity. The individual signals in each of the compound test wells were then divided by the averaged control values after background subtraction and multiplied by 100% to determine percent activity. EC50 values were calculated as the concentration which caused a 50% reduction in FRET or luciferase activity. The two numbers generated for the compound plate, percent cytoxicity and percent activity, were used to determine compounds of interest for further analysis.
A general note: A replicon is a self-replicating genome or part of one, used to study replication in cells.

In another experiment the target is T1, HCV NS5B (Hepatitis C virus genotype 1b, UniProt Q9WMX2).
T1 construct: The protein was expressed with an 18 amino acid C-terminal truncation to enhance the solubility; made in house; host or cells: E. coli BL21(DE3)
Kind of experiment: HCV NS5B RdRp enzyme assay (standard or modified). Type of experiment: biochemical. Particulars: HCV NS5B RdRp genotype 1b; standard or modified enzyme assay not specified; read-out: IC50. On the procedure:
HCV NS5B RdRp cloning, expression, and purification. The cDNA encoding the NS5B protein of HCV, genotype 1b, was cloned into the pET21a expression vector. The protein was expressed with an 18 amino acid C-terminal truncation to enhance the solubility. The E. coli competent cell line BL21(DE3) was used for expression of the protein. Cultures were grown at 37° C. for ˜4 hours until the cultures reached an optical density of 2.0 at 600 nm. The cultures were cooled to 20° C. and induced with 1 mM IPTG. Fresh ampicillin was added to a final concentration of 50 μg/ml and the cells were grown overnight at 20° C.
Cell pellets (3 L) were lysed for purification to yield 15-24 mgs of purified NS5B. The lysis buffer consisted of 20 mM Tris-HCl, pH 7.4, 500 mM NaCl, 0.5% triton X-100, 1 mM DTT, 1mM EDTA, 20% glycerol, 0.5 mg/ml lysozyme, 10 mM MgCl2, 15 ug/ml deoxyribonuclease I, and Complete TM protease inhibitor tablets (Roche). After addition of the lysis buffer, frozen cell pellets were resuspended using a tissue homogenizer. To reduce the viscosity of the sample, aliquots of the lysate were sonicated on ice using a microtip attached to a Branson sonicator. The sonicated lysate was centrifuged at 100,000×g for 1 hr at 4° C. and filtered through a 0.2 μm filter unit (Corning).
The protein was purified using two sequential chromatography steps: Heparin sepharose CL-6B and polyU sepharose 4B (Pharmacia). The chromatography buffers were identical to the lysis buffer but contained no lysozyme, deoxyribonuclease I, MgCl2 or protease inhibitor and the NaCl concentration of the buffer was adjusted according to the requirements for charging the protein onto the column. Each column was eluted with a NaCl gradient which varied in length from 5-50 column volumes depending on the column type. After the final chromatography step, the resulting purity of the enzyme is >90% based on SDS-PAGE analysis. The enzyme was aliquoted and stored at −80° C.
Standard HCV NS5B RdRp enzyme assay. HCV RdRp genotype 1b assays were run in a final volume of 60 μl in 96 well plates (Corning 3600). The assay buffer is composed of 20 mM Hepes, pH 7.5, 2.5 mM KCl, 2.5 mM MgCl2, 1 mM DTT, 1.6 U RNAse inhibitor (Promega N2515), 0.01 mg/ml BSA (Sigma B6917), and 2% glycerol. All compounds were serially diluted (3-fold) in DMSO and diluted further in water such that the final concentration of DMSO in the assay was 2%. HCV RdRp genotype 1b enzyme was used at a final concentration of 28 nM. A polyA template was used at 6 nM, and a biotinylated oligo-dT12 primer was used at 180 nM final concentration. Template was obtained commercially (Amersham 27-4110). Biotinylated primer was prepared by Sigma Genosys. 3H-UTP was used at 0.6 μCi (0.29 μM total UTP). Reactions were initiated by the addition of enzyme, incubated at 30° C. for 60 min, and stopped by adding 25 μl of 50 mM EDTA containing SPA beads (4 μg/pl, Amersham RPNQ 0007). Plates were read on a Packard Top Count NXT after >1 hr incubation at room temperature.
Modified HCV NS5B RdRp enzyme assay. A modified enzyme assay was performed essentially as described for the standard enzyme assay except for the following: The biotinylated oligo dT12 primer was precaptured on streptavidin-coated SPA beads by mixing primer and beads in assay buffer and incubating at room temperature for one hour. Unbound primer was removed after centrifugation. The primer-bound beads were resuspended in 20 mM Hepes buffer, pH 7.5 and used in the assay at final concentrations of 20 nM primer and 0.67 μg/μl beads. Order of addition in the assay: enzyme (1.75 nM) was added to diluted compound followed by the addition of a mixture of template (0.36 nM), 3H-UTP (0.6 μCi, 0.29 μM), and primer-bound beads, to initiate the reaction; concentrations given are final. Reactions were allowed to proceed for 4 hours at 30° C.
IC50 values for compounds were determined using seven different [I]. […]

T1 sequence (Q9WMX2 2420-2992): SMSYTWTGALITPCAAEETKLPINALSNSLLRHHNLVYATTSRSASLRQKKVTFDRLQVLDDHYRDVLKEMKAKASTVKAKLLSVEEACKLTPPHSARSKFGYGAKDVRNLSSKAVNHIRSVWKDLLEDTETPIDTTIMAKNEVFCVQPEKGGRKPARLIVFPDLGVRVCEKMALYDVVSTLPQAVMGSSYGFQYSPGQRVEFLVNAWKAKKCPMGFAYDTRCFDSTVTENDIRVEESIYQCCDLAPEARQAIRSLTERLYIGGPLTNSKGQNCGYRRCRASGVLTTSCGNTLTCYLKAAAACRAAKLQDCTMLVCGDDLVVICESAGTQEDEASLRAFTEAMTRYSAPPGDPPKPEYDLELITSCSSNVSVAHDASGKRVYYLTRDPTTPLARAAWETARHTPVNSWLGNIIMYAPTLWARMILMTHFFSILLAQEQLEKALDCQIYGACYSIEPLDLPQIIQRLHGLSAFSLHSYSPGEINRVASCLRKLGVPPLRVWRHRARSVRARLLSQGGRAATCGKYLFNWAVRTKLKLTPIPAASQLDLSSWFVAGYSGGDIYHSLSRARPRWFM

By EC50 is commonly meant the concentration needed to bring the measured effect to its halfway point. As a reminder, the IC50 is the concentration that gives 50% inhibition. On to `COc1ccc2c(c1)C1CC1(C(=O)N1CCN(C)C[C@H]1c1ccccc1)Cn1c-2c(C2CCCCC2)c2ccc(C(=O)NS(=O)(=O)C(C)C)cc21` (some centres unmarked), for which, in the experiment on HCV replicon, the EC50 fell in the range of 3 to 1000 nM. The IC50 on HCV NS5B was in the range of 3 to 1000 nM.

`COc1ccc2c(c1)C1CC1(C(=O)N1CCN(C)CC1c1ccccc1)Cn1c-2c(C2CCCCC2)c2ccc(C(=O)NS(=O)(=O)N(C)C)cc21` (centres unmarked) [drawing 44]: the EC50 in the experiment on HCV replicon was 3 to 1000 nM. Besides, the 50% inhibitory concentration (IC50) on HCV NS5B lay within 3 to 1000 nM.

With `COc1ccc2c(c1)C1CC1(C(=O)N1CCN(C)CC1c1ccccc1)Cn1c-2c(C2CCCCC2)c2ccc(C(=O)NS(=O)(=O)C(C)C)cc21` (centres unmarked) [drawing 74], the EC50 in the experiment with HCV replicon is 3 to 1000 nM. The IC50 at HCV NS5B lay in the range of 3 to 1000 nM.

For `COc1ccc2c(c1)C1C[C@]1(C(=O)N1CCN(C)CC1c1ccccc1)Cn1c-2c(C2CCCCC2)c2ccc(C(=O)NS(=O)(=O)C(C)C)cc21` (some centres unmarked) [drawing 78], in the experiment with HCV replicon, the EC50 was in the range of 3 to 1000 nM. Besides, the IC50 on HCV NS5B was in the range of 3 to 1000 nM.
